Experimental data reported in ChEMBL document CHEMBL1201862, “PubChem BioAssay data set” (2004).
Active and inactive are the calls of the source.

Columns and labels:
P388/ADR = test: cells; assay type: functional; conditions: Mus musculus
cells = assay type: functional, cell-based
SN12K1 = test: cells; assay type: functional; conditions: Homo sapiens
[1] = molecular target: T1, Nuclear receptor subfamily 0 group B member 1 (Homo sapiens, UniProt P51843); assay type: functional, cell-based;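 also: HEK293T cells transfected with SF-1 and DAX-1 plus StAR promoter luciferase reporter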
T1 sequence (P51843 whole entry): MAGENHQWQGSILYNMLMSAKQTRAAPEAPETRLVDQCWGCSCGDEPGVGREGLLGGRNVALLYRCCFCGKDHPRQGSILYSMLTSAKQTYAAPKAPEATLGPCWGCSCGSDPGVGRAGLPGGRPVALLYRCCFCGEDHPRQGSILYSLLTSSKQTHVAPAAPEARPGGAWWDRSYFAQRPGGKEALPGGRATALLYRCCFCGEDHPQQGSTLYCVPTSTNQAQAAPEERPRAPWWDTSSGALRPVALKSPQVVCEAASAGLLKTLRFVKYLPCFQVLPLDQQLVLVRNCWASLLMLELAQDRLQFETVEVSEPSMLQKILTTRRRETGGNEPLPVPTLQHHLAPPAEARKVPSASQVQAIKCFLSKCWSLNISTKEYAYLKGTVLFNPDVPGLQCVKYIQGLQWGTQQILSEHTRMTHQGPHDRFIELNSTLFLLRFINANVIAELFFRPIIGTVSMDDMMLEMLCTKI

P388 = test: cells; assay type: functional; conditions: Mus musculus
[2] = Counterscreen for activators of the function of SWI/SNF related, matrix associated, actin dependent regulator of chromatin, subfamily a, member 2 (SMARCA2, BRM): Luminescence-based cell-based high throughput dose response assay to identify non-selective compounds using the VP16 reporter assay.; assay type: functional
[3] = molecular target: SWI/SNF-related matrix-associated actin-dependent regulator of chromatin subfamily A member 2 (Homo sapiens, UniProt P51531); test: Luminescence-based cell-based high throughput dose response assay to identify activators of the function of SWI/SNF related, matrix associated, actin dependent regulator of chromatin, subfamily a, member 2 (SMARCA2, BRM).; assay type: functional
Protein Wnt-3a = Protein Wnt-3a (Mus musculus, UniProt P27467); test: SAR analysis of small molecule antagonists of Gli-SUFU in a Wnt3a luminescent reporter assay.; assay type: functional
[4] = molecular target: Tyrosyl-DNA phosphodiesterase 2 (Homo sapiens, UniProt O95551); test: human TDP2 enzyme inhibitors, dose response, biochemical, epi absorbance, IC50 (AID 743297)
Plasmodium falciparum = test: growth inhibition of P. falciparum 3D7, dose response, 3D7 strain, red blood cells, SYBR Green, cherry-picked (AID 652047); assay type: functional
Caspase-6 = molecular target: T2, Caspase-6 (Homo sapiens, UniProt P55212); test: human caspase-6 inhibitors, dose response, biochemical, VEID-R110 fluorescence, cherry-pick (AID 720632)
T2 sequence (P55212 whole entry): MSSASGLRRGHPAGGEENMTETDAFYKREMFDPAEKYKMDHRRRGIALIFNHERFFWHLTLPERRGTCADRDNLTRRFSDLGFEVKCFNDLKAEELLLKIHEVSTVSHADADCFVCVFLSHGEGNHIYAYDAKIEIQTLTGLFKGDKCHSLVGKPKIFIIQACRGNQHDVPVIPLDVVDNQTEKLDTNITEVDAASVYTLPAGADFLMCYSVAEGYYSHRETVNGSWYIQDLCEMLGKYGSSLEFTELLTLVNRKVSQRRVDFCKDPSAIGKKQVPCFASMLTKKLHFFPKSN

[5] = molecular target: T3, Sentrin-specific protease 8 (Homo sapiens, UniProt Q96LD8); assay type: functional
T3 sequence (Q96LD8 whole entry): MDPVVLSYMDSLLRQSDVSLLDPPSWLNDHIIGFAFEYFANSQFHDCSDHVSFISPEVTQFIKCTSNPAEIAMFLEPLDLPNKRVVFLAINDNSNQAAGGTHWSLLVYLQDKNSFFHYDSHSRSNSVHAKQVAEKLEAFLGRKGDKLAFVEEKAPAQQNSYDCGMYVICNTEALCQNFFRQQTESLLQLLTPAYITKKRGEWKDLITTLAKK

Caspase-3 = molecular target: T4, Caspase-3 (Homo sapiens, UniProt P42574); test: Dose-response confirmation of uHTS inhibitor hits of Sentrin-Specific Protease 8 in a Caspase-3 Fluorescence assay.; assay type: functional
T4 sequence (P42574 whole entry): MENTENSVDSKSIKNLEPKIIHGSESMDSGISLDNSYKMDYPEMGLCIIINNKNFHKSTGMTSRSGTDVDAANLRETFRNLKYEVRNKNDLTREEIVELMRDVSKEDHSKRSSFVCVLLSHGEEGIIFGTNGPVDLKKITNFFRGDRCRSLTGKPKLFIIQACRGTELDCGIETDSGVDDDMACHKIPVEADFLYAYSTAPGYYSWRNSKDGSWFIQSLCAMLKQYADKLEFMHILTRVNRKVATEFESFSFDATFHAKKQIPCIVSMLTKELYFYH

[6] = molecular target: T3, Sentrin-specific protease 8; assay type: functional; remark: listed apart in the source
[7] = NIH:OVCAR-3 ovarian cancer cell cytotoxicity, dose response, PAX8 inhibitor project, plate reader, dry powder samples (AID 743044); assay type: functional, cell-based
[8] = inhibitors of CMV-promoter luciferase reporter, dose response, counter-screen for Pax8 inhibitor project, cell-based, HEK293, luminescence, dry powder (AID 743020); assay type: functional
Paired box protein Pax-8 = Paired box protein Pax-8 (Homo sapiens, UniProt Q06710); test: inhibitors of PAX8-driven TPO luciferase reporter, dose response, RMG-I cells, cherry-pick (AID 687027); assay type: functional, cell-based;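 also: luciferase reporter driven by Pax8 target thyroperoxidase promoter measured by SteadyGlo luminescence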
Paired box protein Pax-8, sequence (Q06710 whole entry): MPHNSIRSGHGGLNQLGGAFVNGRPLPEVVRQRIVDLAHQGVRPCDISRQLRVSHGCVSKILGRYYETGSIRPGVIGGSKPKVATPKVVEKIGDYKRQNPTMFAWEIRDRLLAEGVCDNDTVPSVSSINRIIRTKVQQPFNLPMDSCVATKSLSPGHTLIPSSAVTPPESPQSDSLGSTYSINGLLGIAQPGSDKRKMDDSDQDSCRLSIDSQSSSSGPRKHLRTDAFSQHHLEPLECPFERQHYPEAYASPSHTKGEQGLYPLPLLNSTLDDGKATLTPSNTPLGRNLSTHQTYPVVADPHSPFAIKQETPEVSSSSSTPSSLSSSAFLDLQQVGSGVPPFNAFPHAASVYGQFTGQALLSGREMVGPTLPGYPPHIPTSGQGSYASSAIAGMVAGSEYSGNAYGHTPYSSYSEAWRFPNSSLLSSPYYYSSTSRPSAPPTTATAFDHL

SWI/SNF-related matrix-associated actin-dependent regulator of chromatin subfamily A member 2, sequence (P51531 whole entry): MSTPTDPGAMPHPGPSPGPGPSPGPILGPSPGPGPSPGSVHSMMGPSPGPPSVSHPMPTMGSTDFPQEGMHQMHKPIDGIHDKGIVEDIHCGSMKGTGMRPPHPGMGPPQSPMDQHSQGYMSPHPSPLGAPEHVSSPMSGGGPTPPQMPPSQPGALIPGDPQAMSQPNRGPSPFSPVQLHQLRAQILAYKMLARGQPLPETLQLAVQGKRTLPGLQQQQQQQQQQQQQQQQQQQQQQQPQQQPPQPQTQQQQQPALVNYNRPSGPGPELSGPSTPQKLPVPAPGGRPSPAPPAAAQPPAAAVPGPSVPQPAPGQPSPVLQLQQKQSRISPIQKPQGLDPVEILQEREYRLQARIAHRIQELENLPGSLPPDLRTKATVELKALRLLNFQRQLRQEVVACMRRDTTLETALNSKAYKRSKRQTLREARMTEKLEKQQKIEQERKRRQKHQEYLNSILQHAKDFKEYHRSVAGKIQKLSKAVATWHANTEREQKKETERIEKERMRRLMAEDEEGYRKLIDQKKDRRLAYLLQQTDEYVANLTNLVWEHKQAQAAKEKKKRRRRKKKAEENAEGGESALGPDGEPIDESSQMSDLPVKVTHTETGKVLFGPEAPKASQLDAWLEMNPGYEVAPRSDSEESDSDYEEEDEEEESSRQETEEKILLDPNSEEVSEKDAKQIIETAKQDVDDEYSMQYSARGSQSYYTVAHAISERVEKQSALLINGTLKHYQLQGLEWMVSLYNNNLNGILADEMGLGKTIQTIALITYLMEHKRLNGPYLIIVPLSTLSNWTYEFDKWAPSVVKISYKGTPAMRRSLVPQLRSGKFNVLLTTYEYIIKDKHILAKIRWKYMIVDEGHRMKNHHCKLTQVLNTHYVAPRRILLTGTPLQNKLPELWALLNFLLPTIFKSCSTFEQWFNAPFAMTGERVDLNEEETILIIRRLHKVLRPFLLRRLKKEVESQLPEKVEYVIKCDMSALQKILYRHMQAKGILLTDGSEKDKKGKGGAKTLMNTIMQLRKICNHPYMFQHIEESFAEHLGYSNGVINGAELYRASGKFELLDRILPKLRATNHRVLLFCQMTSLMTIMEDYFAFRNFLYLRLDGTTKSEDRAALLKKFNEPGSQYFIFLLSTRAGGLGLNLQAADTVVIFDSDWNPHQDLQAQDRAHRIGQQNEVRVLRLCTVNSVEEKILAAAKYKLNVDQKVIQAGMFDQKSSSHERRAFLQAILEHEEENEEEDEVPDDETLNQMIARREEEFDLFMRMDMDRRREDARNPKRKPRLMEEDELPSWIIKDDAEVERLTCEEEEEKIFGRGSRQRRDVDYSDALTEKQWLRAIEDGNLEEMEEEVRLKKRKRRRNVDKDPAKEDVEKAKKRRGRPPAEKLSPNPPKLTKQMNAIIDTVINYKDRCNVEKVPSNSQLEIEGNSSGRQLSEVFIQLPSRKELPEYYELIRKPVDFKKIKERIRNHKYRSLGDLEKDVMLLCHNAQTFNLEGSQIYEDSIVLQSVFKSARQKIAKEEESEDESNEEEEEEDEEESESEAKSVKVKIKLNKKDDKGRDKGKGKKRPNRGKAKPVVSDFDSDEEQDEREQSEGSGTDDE
Tyrosyl-DNA phosphodiesterase 2, sequence (O95551 whole entry): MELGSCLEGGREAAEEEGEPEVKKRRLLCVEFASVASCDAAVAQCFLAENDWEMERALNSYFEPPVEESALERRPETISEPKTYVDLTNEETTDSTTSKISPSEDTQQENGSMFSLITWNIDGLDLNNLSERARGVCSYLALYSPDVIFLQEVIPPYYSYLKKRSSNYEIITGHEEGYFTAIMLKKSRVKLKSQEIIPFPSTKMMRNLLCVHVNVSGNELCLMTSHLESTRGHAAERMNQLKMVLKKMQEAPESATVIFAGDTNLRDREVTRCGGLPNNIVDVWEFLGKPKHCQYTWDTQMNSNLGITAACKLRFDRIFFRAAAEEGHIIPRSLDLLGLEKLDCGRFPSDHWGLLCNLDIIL
Protein Wnt-3a, sequence (P27467 whole entry): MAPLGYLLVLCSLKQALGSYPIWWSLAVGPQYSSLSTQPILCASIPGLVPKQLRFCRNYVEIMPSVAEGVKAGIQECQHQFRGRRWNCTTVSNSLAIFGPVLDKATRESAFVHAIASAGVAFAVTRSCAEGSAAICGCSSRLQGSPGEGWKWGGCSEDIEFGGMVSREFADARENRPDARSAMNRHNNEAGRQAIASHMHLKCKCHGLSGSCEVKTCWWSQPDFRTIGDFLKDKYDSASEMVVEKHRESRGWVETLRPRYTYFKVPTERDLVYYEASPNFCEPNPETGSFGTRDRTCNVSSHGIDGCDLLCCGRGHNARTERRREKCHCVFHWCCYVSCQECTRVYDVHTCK

Nc1ccc(S(=O)(=O)Nc2cnc3c(Cl)cccc3n2)cc1 [CHLORSULFAQUINOXALINE]
GI50 (P388/ADR): 128 µM (inactive) | IC50 (cells): > 67.5 µM (inactive) | GI50 (SN12K1): 117 µM (inactive) | IC50 [1]: > 67.5 µM (inactive) | GI50 (P388): 87.1 µM (inactive) | EC50 [2]: > 91.2 µM (inactive) | EC50 [3]: > 91.2 µM (inactive)

CCCCN(C)c1cc(NC(=O)c2ccccc2)ncn1
IC50 (Protein Wnt-3a): > 21.8 µM (inactive)

COc1ccc(-n2[nH]c(C)cc2=O)cc1
IC50 [4]: > 128 µM (inactive)

CCCc1cc(C(N)=O)c(NC(=O)c2cc(C)on2)s1
AbsAC35 (Plasmodium falciparum): 70.04 µM

CCOCCOc1cc(NCc2ccccc2)c2ncn(C(C)C)c2c1
AC50 (Caspase-6): 9.77 µM (active) | IC50 [5]: 9.3 µM (active) | IC50 (Caspase-3): 45.5 µM (active) | IC50 [6]: 8.07 µM (active)

C[C@@H]1CN([C@H](C)CO)C(=O)c2cc(NC(=O)Nc3ccc(F)cc3)ccc2O[C@@H](C)CCCCO[C@H]1CN(C)Cc1ccc(C(F)(F)F)cc1
AC50 [7]: 15.8 µM (active) | AC50 [8]: 37.9 µM (active) | AC50 (Paired box protein Pax-8): 4.13 µM (active)
